Experimental data taken from the supplement of paper PMC13380429.

How the values were obtained:
Settings in all cases: 72 h
Caco-2 [1] = assay: drug sensitivity score (DSS) for viability; higher = more toxic; extreme values may be limits of the assay
Vero E6 [2] = assay: as above
HepG2 [3] = assay: as above
U2OS [4] = assay: as above
Calu-3 [5] = assay: as above
Caco-2 [6] = assay: relative viability EC50 (midpoint between 100% and the lowest measured viability); higher = less toxic
Vero E6 [7] = assay: as above
HepG2 [8] = assay: as above
Calu-3 [9] = assay: as above
Caco-2 [10] = assay: cell viability relative to DMSO; higher = less toxic
Vero E6 [11] = assay: as above
HepG2 [12] = assay: as above
U2OS [13] = assay: as above
Calu-3 [14] = assay: as above
U2OS [15] = assay: relative viability EC50 (midpoint between 100% and the lowest measured viability); higher = less toxic

Structure (SMILES) | drug sensitivity score (Caco-2 [1]) | drug sensitivity score (Vero E6 [2]) | drug sensitivity score (HepG2 [3]) | drug sensitivity score (U2OS [4]) | drug sensitivity score (Calu-3 [5]) | relative viability EC50 (Caco-2 [6]) [µM] | relative viability EC50 (Vero E6 [7]) [µM] | relative viability EC50 (HepG2 [8]) [µM] | relative viability EC50 (Calu-3 [9]) [µM] | cell viability (Caco-2 [10]; 1 nM) [%] | cell viability (Caco-2 [10]; 10 nM) [%] | cell viability (Caco-2 [10]; 100 nM) [%] | cell viability (Caco-2 [10]; 1000 nM) [%] | cell viability (Caco-2 [10]; 10000 nM) [%] | cell viability (Vero E6 [11]; 1 nM) [%] | cell viability (Vero E6 [11]; 10 nM) [%] | cell viability (Vero E6 [11]; 100 nM) [%] | cell viability (Vero E6 [11]; 1000 nM) [%] | cell viability (Vero E6 [11]; 10000 nM) [%] | cell viability (HepG2 [12]; 1 nM) [%] | cell viability (HepG2 [12]; 10 nM) [%] | cell viability (HepG2 [12]; 100 nM) [%] | cell viability (HepG2 [12]; 1000 nM) [%] | cell viability (HepG2 [12]; 10000 nM) [%] | cell viability (U2OS [13]; 1 nM) [%] | cell viability (U2OS [13]; 10 nM) [%] | cell viability (U2OS [13]; 100 nM) [%] | cell viability (U2OS [13]; 1000 nM) [%] | cell viability (U2OS [13]; 10000 nM) [%] | cell viability (Calu-3 [14]; 1 nM) [%] | cell viability (Calu-3 [14]; 10 nM) [%] | cell viability (Calu-3 [14]; 100 nM) [%] | cell viability (Calu-3 [14]; 1000 nM) [%] | cell viability (Calu-3 [14]; 10000 nM) [%] | relative viability EC50 (U2OS [15]) [µM]
Cc1c(C)c2c(c(C)c1OC(=O)CCC(=O)OCCO)CC[C@@](C)(CCC[C@H](C)CCC[C@H](C)CCCC(C)C)O2 [tocofersolan] | 0 | 0 | 0 | 1.3 | 0 | > 10 | > 10 | > 10 | > 10 | 96.8 | 105 | 106 | 101 | 90.2 | 97.8 | 97.9 | 95.9 | 94.9 | 99.3 | 98.4 | 99.8 | 95 | 103 | 100 | 102 | 105 | 99 | 98.4 | 72.9 | 105 | 101 | 105 | 104 | 95.2 | 
OCCn1cc(-c2cnc3nnn(Cc4ccc5ncccc5c4)c3n2)cn1 | 1.8 | 0 | 1.3 | 0 | 0 | > 10 | > 10 |  | > 10 | 93.7 | 100 | 97.1 | 86.2 | 79.2 | 99.7 | 105 | 97.7 | 97.7 | 96.4 | 102 | 93.6 | 88.8 | 97.7 | 74.9 | 105 | 101 | 99.3 | 95.3 | 97.1 | 99 | 92.2 | 93 | 93.9 | 103 | > 10
